Test results taken from patent publication US5866562A, “Ring-bridged bis-quinolines” (Bayer Aktiengesellschaft, priority 1996, dated 1999).

Legend:
[1] = target: apamine binding sites in bovine cerebral membranes (apamine-sensitive potassium channels); assay: Binding of ^125 I-apamine to bovine cerebral membranes; details: ^125 I-apamine 30 pM; calf hippocampus membranes; pH 7.4; 60 min on ice
Protocol: 1) Binding of ^125 I-apamine to bovine cerebral membranes
Calfbrains were obtained from the local abattoir. The hippocampus was prepared on ice and a membrane suspension was made up by homogenization twice in buffer (100 mM Tris-HCl, KCl 5 mM, pH 7.4) and centrifugation at 43,000×g. In a total volume of 500 μl, the incubation mixture contained 200 μg of membrane protein, 30 pM ^125 I-apamine and test substances in the concentration range 1×10^-9 to 1×10^-4 M. The non-specific binding of ^125 I-apamine was determined in the presence of 1×10^-7 M unlabelled apamine.
After preincubation for 30 min at room temperature (test substances and membrane homogenate), the samples were placed on ice for 10 min before the radioligand was added. The main incubation time was 60 min on ice. When the reaction time had elapsed, an excess of ice-cooled incubation buffer was added to each sample and the mixture was filtered with suction through cellulose acetate/nitrate membrane filters. The amount of bound ^125 I-apamine was measured with a gamma counter.

[2] = test system: apamine-sensitive rubidium efflux in PC12 cells (potassium channels); assay: Non-radioactive Rb+ efflux assay for the identification of potassium channel modulators; assay type: cell-based; details: Rattus norvegicus, PC-12, 10 min, at a test concentration of 10 μM, 50 mM KCl depolarization
Protocol: 2) Non-radioactive Rb^+ efflux assay for the identification of potassium channel modulators
The potassium in PC12 cells is exchanged with rubidium, which is not present in the cells. This exchange is performed by incubating the cells over a period of 4 h in a physiological buffer containing 5.4 mM RbCl without KCl. This rubidium subsequently serves as a tracer for potassium.
The cells laden with Rb^+ in this way are washed three times and then stimulated by depolarization with 50 mM KCl to open potassium channels (10 min), causing Rb^+ to flow out of the cells into the supernatant according to the concentration gradient.
The rubidium contents in the cell supernatant and in the residual cells after they have been lysed with 1% Triton X-100 are then determined by means of atomic absorption spectroscopy. The relative proportion of rubidium in the cell supernatant (=Rb^+ efflux) is used as a measure of the potassium channel activity.
The effect of substances on the channel activity is measured by co-incubating the test substance over the ten-minute stimulation period and determining its effect on the Rb^+ efflux in the manner described above.

Row | SMILES | Ki [1] | inhibition at 10 µM [2]
1 | c1ccc2c(N3CCCN(c4ccnc5ccccc45)CC3)ccnc2c1 [Example 1] | 780 nM | –
2 | Cc1cc(N2CCCN(c3cc(C)nc4c(C)cccc34)CC2)c2cccc(C)c2n1 [Example 12] | 35 nM | 73%
3 | Cc1cc(N2CCCN(c3cc(C)nc4cccc(O)c34)CC2)c2c(O)cccc2n1 [Example 7] | – | 58%
